These results are taken from US9296691B2, “Inhibitors of p75 receptor and their uses” (Horacio Uri Saragovi, priority 2010, dated 2016).

The target in one assay is T1, p75-Fc (Homo sapiens, UniProt P08138).
T1 construct: purchased R&D
T1 sequence (P08138 29-250 limits assumed): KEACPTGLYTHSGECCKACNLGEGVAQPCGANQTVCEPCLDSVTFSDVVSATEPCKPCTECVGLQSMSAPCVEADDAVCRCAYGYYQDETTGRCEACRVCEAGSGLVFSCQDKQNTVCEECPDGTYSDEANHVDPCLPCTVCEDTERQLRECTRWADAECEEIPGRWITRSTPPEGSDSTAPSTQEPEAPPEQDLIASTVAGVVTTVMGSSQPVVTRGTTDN
Nature of the assay: Competitive ELISA, p75-Fc binding to immobilized NGF. As to conditions: 0.75 h; binding to immobilized NGF, no cpd = 100%; p75-Fc 50 nM; as described for FIG. 1A (compounds 30 μM); below 100% indicates inhibition. The protocol: (§1) The effect of compounds I-B and LM-24 on the binding between NGF and p75 was tested in competitive ELISA assays, where the antagonists prevent soluble p75 from binding to immobilized NGF. The selectivity of antagonism was evaluated by lack of effect upon NGF-TrkA or lack of effect between NGF and anti-NGF monoclonal antibody (mAb) NGF30 interactions (FIG. 1A).
The compound LM-24 has been reported by others (Massa et al., 2006). Binding studies were carried out with all the compounds using I-B as reference.
(§2) Competitive ELISAs were performed as described (Saragovi et al., 1998). The procedure immobilized 50 ng/well NGF, or pro-NGF (Alomone Labs, Israel) onto polystyrene 96-well microtest plates, with washing and blocking with binding buffer (BB; phosphate buffered saline containing 0.5% bovine serum albumin). The following primary reagents in BB were added: recombinant chimeric p75-Fc or recombinant chimeric TrkA-Fc (R&D), or anti-NGF mAb NGF30 (Saragovi et al., 1998); each at 50 nM. The competitors I-B and the other test compounds (or control LM-24) were added at the indicated concentrations, and the plates were incubated for 45 minutes. After washing 3× in BB, HRP-conjugated secondary reagents (Sigma) were added for 30 min (goat anti-human Fc for p75-Fc and for TrkA-Fc; and goat anti-rat Ab for NGF30 mAb), and then wells were washed 3× in BB and 1× in PBS. Peroxidase activity was determined colorimetrically using the substrate TMB One Solution (Promega). The reaction was stopped with 0.5 N H2SO4 and the plates were read at 450 nm (Benchmark Plus, Bio-Rad). Assays were repeated n>4 times, with replicates of 4 wells each assay. […] Wells with no NGF immobilized but with all other reagents added were treated as background (<15% of maximal signals) and standardized to 0% binding.
A general note: In an ELISA, binding on a coated surface is turned into a signal by an enzyme label.

Another assay has as its system anti-NGF mAb NGF30. The experiment in a line: Competitive ELISA, anti-NGF mAb NGF30 binding to immobilized NGF (selectivity control). As to conditions: binding to immobilized NGF, no cpd = 100%; mAb NGF30 50 nM; as described for FIG. 1A. The protocol: as §1, §2
In the next assay the target is T2, TrkA-Fc (Homo sapiens, UniProt P04629).
T2 construct: purchased R&D
Nature of the assay: Competitive ELISA, TrkA-Fc binding to immobilized NGF (selectivity control). To be noted: binding to immobilized NGF, no cpd = 100%; TrkA-Fc 50 nM; as described for FIG. 1A. As for the experimental part: as §1, §2

A further assay deals with B104 cells. The experiment in a line: Pro-NTF killing assay (MTT), B104 cells. Format: cell-based. To be noted: 50 nM, 72 hours, p<0.05. As for the experimental part:
(§3) The effect of I-B on the pro-apoptotic function of pro-NGF or pro-BDNF was tested in functional MTT assays measuring cell metabolism (FIG. 1B).
(§4) Cells (5,000 cells/well) were cultured in 96-well plates (Falcon, Lincoln Park, N.J.) in normal culture media (RPMI1640, Hepes, Glutamine, 5% serum). Wells were supplemented with NGF, BDNF, pro-NGF, or pro-BDNF (Alomone Labs) (50 nM final), in the presence or absence of I-B (20 μM final). Wells containing all culture conditions but no cells were used as blanks. The growth/survival profile of the cells was quantified using MTT (Sigma) 72 hours after plating. Optical density readings of MTT were done in a Benchmark Plus microplate Spectrophotometer (BioRad) at 595 nm with blanks subtracted.

Another assay has as its system nnr5 cells. The experiment in a line: Pro-NTF killing assay (MTT), nnr5 cells. It is filed as cell-based. To be noted: 50 nM, 72 hours, p<0.05. As for the experimental part: as §3, §4

T2 sequence (P04629 33-423 limits assumed): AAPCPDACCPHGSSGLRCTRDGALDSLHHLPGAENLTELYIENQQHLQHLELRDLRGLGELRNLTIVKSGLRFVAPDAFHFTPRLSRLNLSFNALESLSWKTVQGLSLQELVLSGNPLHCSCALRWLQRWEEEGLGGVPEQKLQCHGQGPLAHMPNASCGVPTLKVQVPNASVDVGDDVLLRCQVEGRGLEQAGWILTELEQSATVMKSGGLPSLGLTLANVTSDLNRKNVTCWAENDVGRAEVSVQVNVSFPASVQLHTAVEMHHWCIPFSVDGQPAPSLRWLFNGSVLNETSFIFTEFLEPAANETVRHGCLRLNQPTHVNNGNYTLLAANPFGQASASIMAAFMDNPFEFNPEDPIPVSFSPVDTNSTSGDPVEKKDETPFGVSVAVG

By remaining activity is commonly meant the signal under treatment as a percentage of the control signal. Low readings indicate little activity left, high ones much activity left. On p75-Fc, `Cc1ccc(NC(=O)N(C(=O)CCc2c[nH]c3ccccc23)c2ccc(C)cc2)cc1` [I-S, 3-(1H-indol-3-yl)-N-p-tolyl-N-(p-tolylcarbamoyl)propanamide] displayed a remaining activity at 30 µM of 56%.

Molecule `Cn1c(=O)c2c(ncn2CC(=O)OCCCN)n(C)c1=O` [II-D, 3′-Aminopropyl (1,3-dimethyl-2,6-dioxo-2,3-dihydro-1H-purin-7(6H)-yl)acetate] came in with a remaining activity at 30 µM at p75-Fc of 69%. Moreover, the “NGF30 binding AVERAGE” value in the assay on anti-NGF mAb NGF30 amounted to 91%. Besides, on TrkA-Fc, the “TrkA-Fc binding AVERAGE” value was determined as 116%.

As for “Pro-NGF: precursor of nerve growth factor (Alomone Labs), pro-apoptotic p75 ligand”, the “cell viability (MTT), growth factor alone” value in the assay on B104 cells and in the assay with nnr5 cells was “reduced the viability” throughout.

In turn, `Cn1c(=O)c2c(ncn2CC(=O)NCCC(F)(F)F)n(C)c1=O` [I-F, 2-(1,3-dimethyl-2,6-dioxo-2,3-dihydro-1H-purin-7(6H)-yl)-N-(3,3,3-trifluoropropyl)acetamide] had a remaining activity at 30 µM on p75-Fc of 73%. For the same molecule, the “TrkA-Fc binding AVERAGE” value on TrkA-Fc is given as 91%.

For `Cn1c(=O)c2c(ncn2CC(=O)NCCCC(F)(F)F)n(C)c1=O` [I-A, 2-(1,3-dimethyl-2,6-dioxo-2,3-dihydro-1H-purin-7(6H)-yl)-N-(4,4,4-trifluorobutyl)acetamide], the remaining activity at 30 µM at p75-Fc was 74%. The “NGF30 binding AVERAGE” value in the assay on anti-NGF mAb NGF30 was 86%. Besides, the “TrkA-Fc binding AVERAGE” value at TrkA-Fc is 105%.

Take `CC(C)NC(=O)N(C(=O)Cc1c[nH]c2ccccc12)C(C)C` [I-Q, 2-(1H-indol-3-yl)-N-isopropyl-N-(isopropylcarbamoyl)acetamide]: the remaining activity at 30 µM on p75-Fc is 53%.

Turning to `Cn1c(=O)c2c(ncn2CC(=O)N(C(=O)NC2CCCCC2)C2CCCCC2)n(C)c1=O` [I-G], the remaining activity at 30 µM on p75-Fc worked out at 62%. Moreover, the “TrkA-Fc binding AVERAGE” value on TrkA-Fc was determined as 99%.

For `COC(=O)Cn1cnc2c1c(=O)n(C)c(=O)n2C` [II-H], the remaining activity at 30 µM at p75-Fc stood at 72%. Moreover, on TrkA-Fc, the “TrkA-Fc binding AVERAGE” value was 94%.

Molecule `CCCn1c(=O)c2c(ncn2CC(=O)OC)n(CCC)c1=O` [II-N, Methyl 2-(2,6-dioxo-1,3-dipropyl-2,3-dihydro-1H-purin-7(6H)-yl)acetate] gave a remaining activity at 30 µM at p75-Fc of 83%.

`CC(C)NC(=O)N(C(=O)CCc1c[nH]c2ccccc12)C(C)C` [I-R, 3-(1H-indol-3-yl)-N-isopropyl-N-(isopropylcarbamoyl)propanamide] gave a remaining activity at 30 µM on p75-Fc of 59%.

The molecule `Cn1c(=O)c2c(ncn2CC(=O)OCCCNC(=O)OCc2ccccc2)n(C)c1=O` [II-E, 3′-(Benzyloxycarbonylamino)propyl (1,3-dimethyl-2,6-dioxo-2,3-dihydro-1H-purin-7(6H)-yl)acetate] gave a remaining activity at 30 µM at p75-Fc of 56%. The “NGF30 binding AVERAGE” value in the assay with anti-NGF mAb NGF30 is 89%. Moreover, on TrkA-Fc, the “TrkA-Fc binding AVERAGE” value turned out to be 94%.

B1: pro-BDNF: precursor of brain derived neurotrophic factor (Alomone Labs), pro-apoptotic p75 ligand (protein, UniProt P23560 19-247, looked up)
pro-form: APMKEANIRGQGGLAYPGVRTHGTLESVNGPKAGSRGLTSLADTFEHVIEELLDEDQKVRPNEENNKDADLYTSRVMLSSQVPLEPPLLFLLEEYKNYLDAANMSMRVRRHSDPARRGELSVCDSISEWVTAADKKTAVDMSGGTVTVLEKVPVSKGQLKQYFYETKCNPMGYTKEGCRGIDKRHWNSQCRTTQSYVRALTMDSKKRIGWRFIRIDTSCVCTLTIKRGR
modifications: pro-form
notes: precursor of brain derived neurotrophic factor (Alomone Labs), pro-apoptotic p75 ligand
Turning to B1, the “cell viability (MTT), growth factor alone” value with B104 cells and in the assay on nnr5 cells was “reduced the viability” throughout.
